This assay addresses T1, AR (Homo sapiens, UniProt P10275, T878A).
T1 sequence (P10275 1-920 T878A): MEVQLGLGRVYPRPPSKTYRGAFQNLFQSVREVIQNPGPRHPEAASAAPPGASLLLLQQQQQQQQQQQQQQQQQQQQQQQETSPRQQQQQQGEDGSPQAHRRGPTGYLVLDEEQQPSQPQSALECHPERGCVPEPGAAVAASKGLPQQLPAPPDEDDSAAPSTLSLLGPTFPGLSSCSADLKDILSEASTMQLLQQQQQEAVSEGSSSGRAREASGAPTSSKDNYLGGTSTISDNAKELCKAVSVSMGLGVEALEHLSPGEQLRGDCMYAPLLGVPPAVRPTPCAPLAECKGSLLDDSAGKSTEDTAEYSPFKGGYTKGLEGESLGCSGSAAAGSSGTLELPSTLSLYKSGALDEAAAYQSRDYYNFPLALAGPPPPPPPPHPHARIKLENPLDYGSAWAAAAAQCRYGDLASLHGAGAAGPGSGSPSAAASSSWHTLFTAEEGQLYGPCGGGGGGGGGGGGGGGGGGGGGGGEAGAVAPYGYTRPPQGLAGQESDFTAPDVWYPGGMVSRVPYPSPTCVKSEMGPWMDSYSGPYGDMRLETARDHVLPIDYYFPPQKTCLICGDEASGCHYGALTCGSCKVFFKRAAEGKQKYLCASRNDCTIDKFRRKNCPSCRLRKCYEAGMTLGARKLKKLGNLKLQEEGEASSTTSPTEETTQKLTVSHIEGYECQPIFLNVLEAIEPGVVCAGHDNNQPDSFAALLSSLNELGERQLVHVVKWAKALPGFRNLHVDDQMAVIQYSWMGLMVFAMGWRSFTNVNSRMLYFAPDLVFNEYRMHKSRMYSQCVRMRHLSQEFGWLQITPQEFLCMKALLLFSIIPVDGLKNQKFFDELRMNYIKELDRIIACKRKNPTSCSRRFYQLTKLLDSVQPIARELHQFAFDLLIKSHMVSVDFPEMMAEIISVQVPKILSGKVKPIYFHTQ
The experiment in a line: Effects of compounds on AR expression in LNCaP cells (ELISA, DC50). The class given is cell-based. More on the design: Measurement of the Effects of Drugs on the Expression of AR in Cells by ELISA Method; endogenous in cells; host or cells: LNCaP. As to conditions: 24 hours of drug treatment, AR by ELISA. The method in brief:
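LNCaP cells at about 15,000/well were treated for 24 h with compound at 0.0001–2 μmol/L final. AR in cell lysates was measured by ELISA (OD450). Inhibition was relative to DMSO control after blank subtraction, and DC50 was calculated from it.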
Background: In an ELISA, binding on a coated surface is turned into a signal by an enzyme label.

A value given as a limit tells only on which side of the number the result lay.

With `CC(C)(C)[C@H](NC(=O)COCCCCOc1c(F)cc(-c2ncc(N3C(=S)N(c4ccc(C#N)c(C(F)(F)F)c4F)C(=O)C3(C)C)cc2C(F)(F)F)cc1F)C(=O)N1C[C@H](O)C[C@H]1C(=O)NCc1ccc(C(N)=O)cc1` [Compound A116], the DC50 amounted to 370 nM.
For `CNC(=O)c1ccc(-c2c[nH]c([C@@H]3C[C@@H](O)CN3C(=O)[C@@H](NC(=O)COCCCCOc3ccc(-c4ncc(N5C(=S)N(c6ccc(C#N)c(C(F)(F)F)c6F)C(=O)C5(C)C)cc4F)c(C(F)(F)F)c3)C(C)(C)C)n2)cc1` [Compound A235] the value was 125 nM; for `Cc1ncsc1-c1ccc(CNC(=O)[C@@H]2C[C@@H](O)CN2C(=O)[C@@H](NC(=O)COCCCCN2CCN(c3ccc(N4C(=S)N(c5ccc(C#N)c(C(F)(F)F)c5F)C(=O)C4(C)C)cn3)CC2)C(C)(C)C)cc1` [Compound A106], 402 nM.
With `CC(C)(C)[C@H](NC(=O)COCCCCOc1ccc(-c2ncc(N3C(=S)N(c4ccc(C#N)c(C(F)(F)F)c4F)C(=O)C3(C)C)cc2F)cc1F)C(=O)N1C[C@H](O)C[C@H]1C(=O)NCc1ccc(C(N)=O)cc1` [Compound A119], the DC50 was found to be 7.2 nM.
The figure for `Cc1ncsc1-c1ccc([C@H](C)NC(=O)[C@@H]2C[C@@H](O)CN2C(=O)[C@@H](NC(=O)COCC(F)C(F)COc2c(F)cc(-c3ncc(N4C(=S)N(c5ccc(C#N)c(C(F)(F)F)c5F)C(=O)C4(C)C)cc3F)cc2F)C(C)(C)C)cc1` (stereo partly drawn) [Compound A144] is 635 nM; for `Cc1cc(C(C(=O)N2C[C@H](O)C[C@H]2C(=O)N[C@@H](CC(=O)N2CCC(Oc3ccc(-c4ncc(N5C(=S)N(c6ccc(C#N)c(C(F)(F)F)c6F)C(=O)C5(C)C)cc4F)c(C(F)(F)F)c3)CC2)c2ccc(-c3scnc3C)cc2)C(C)C)on1` (stereo partly drawn) [Compound A183] it is 151 nM; for `Cc1ncsc1-c1ccc(CNC(=O)[C@@H]2C[C@@H](O)CN2C(=O)[C@@H](NC(=O)CCN2CCC(Oc3ccc(-c4ncc(N5C(=S)N(c6ccc(C#N)c(C(F)(F)F)c6F)C(=O)C5(C)C)cc4F)cc3F)CC2)C(C)(C)C)cc1` [Compound A104] it is 241 nM.
The figure for `Cc1ncsc1-c1ccc(CNC(=O)[C@@H]2C[C@@H](O)CN2C(=O)[C@@H](NC(=O)c2ccc(C(F)(F)C(=O)Nc3ccc(-c4ccc(N5C(=S)N(c6ccc(C#N)c(C(F)(F)F)c6F)C(=O)C5(C)C)cn4)cc3)cc2)C(C)(C)C)cc1` [Compound A241] is 807 nM.
For `Cc1cc(C(C(=O)N2C[C@H](O)C[C@H]2C(=O)N[C@@H](CC(=O)N2CCC(C#Cc3ccc(N4C(=S)N(c5ccc(C#N)c(C(F)(F)F)c5F)C(=O)C4(C)C)cn3)CC2)c2ccc(-c3scnc3C)cc2)C(C)C)on1` (stereo partly drawn) [Compound A173] the value was 78.1 nM; for `Cc1ncsc1-c1ccc(CNC(=O)[C@@H]2C[C@@H](O)CN2C(=O)[C@@H](NC(=O)CCCCCC#Cc2ncc(N3C(=S)N(c4ccc(C#N)c(C(F)(F)F)c4F)C(=O)C3(C)C)cc2F)C(C)(C)C)cc1` [Compound A125], greater than 2000 nM; for `Cc1ncoc1-c1c[nH]c([C@@H]2C[C@@H](O)CN2C(=O)[C@@H](NC(=O)COCCCCOc2ccc(-c3ccc(N4C(=S)N(c5ccc(C#N)c(C(F)(F)F)c5F)C(=O)C4(C)C)cn3)cc2)C(C)(C)C)n1` [Compound A225], 92.1 nM.
In turn, `CC(C)(C)[C@H](NC(=O)COCCCCOc1ccc(-c2ccc(N3C(=S)N(c4ccc(C#N)c(C(F)(F)F)c4F)C(=O)C3(C)C)cn2)cc1)C(=O)N1C[C@H](O)C[C@H]1c1nc(-c2cncs2)c[nH]1` [Compound A203] yielded a DC50 of 71.9 nM.
`Cc1ncsc1-c1ccc(CNC(=O)[C@@H]2C[C@@H](O)CN2C(=O)[C@@H](NC(=O)COCCOCCOc2ncc(N3C(=S)N(c4ccc(C#N)c(C(F)(F)F)c4F)C(=O)C3(C)C)cc2F)C(C)(C)C)cc1` [Compound A265] came in with a DC50 of 381 nM.
The figure for `Cc1ncsc1-c1ccc(CNC(=O)[C@@H]2C[C@@H](O)CN2C(=O)[C@@H](NC(=O)COCCCCOc2ccc(-c3ncc(N4C(=S)N(c5ccc(C#N)c(C(F)(F)F)c5F)C(=O)C4(C)C)cc3C(F)(F)F)cc2C#N)C(C)(C)C)cc1` [Compound A75] is 89.4 nM; for `CC1(C)C(=O)N(c2ccc(C#N)c(C(F)(F)F)c2F)C(=S)N1c1cnc(-c2ccc(OC3CCN(C(=O)COc4ccc5c(c4)C(=O)N(C4CCC(=O)NC4=O)C5=O)CC3)cc2C(F)(F)F)c(F)c1` (stereo not drawn) [Compound A180] it is 840 nM.
The compound `Cc1ncsc1-c1ccc(CNC(=O)[C@@H]2C[C@@H](O)CN2C(=O)[C@@H](NC(=O)COCCOc2ccc(-c3ncc(N4C(=S)N(c5ccc(C#N)c(C(F)(F)F)c5F)C(=O)C4(C)C)cc3C(F)(F)F)cc2)C(C)(C)C)cc1` [Compound A92] returned a DC50 of 99.6 nM.
`COc1c(C#N)ccc(N2C(=O)C(C)(C)N(c3cnc(-c4ccc(OC5CCN(C(=O)COc6cccc7c6C(=O)N(C6CCC(=O)NC6=O)C7=O)CC5)cc4F)c(F)c3)C2=S)c1F` (stereo not drawn) [Compound A195] came in with a DC50 of 404 nM.
The figure for `Cc1cc(C(C(=O)N2C[C@H](O)C[C@H]2C(=O)N[C@@H](CC(=O)NCCCOc2ccc(-c3ncc(N4C(=S)N(c5ccc(C#N)c(C(F)(F)F)c5F)C(=O)C4(C)C)cc3F)cc2F)c2ccc(-c3scnc3C)cc2)C(C)C)on1` (stereo partly drawn) [Compound A172] is 170 nM.
Compound `Cc1cc(C(C(=O)N2C[C@H](O)C[C@H]2C(=O)N[C@@H](CC(=O)N2CCC(Oc3ccc(-c4ncc(N5C(=S)N(c6ccc(C#N)c(C(F)(F)F)c6F)C(=O)C5(C)C)cc4F)cc3F)CC2)c2ccc(-c3scnc3C)cc2)C(C)C)on1` (stereo partly drawn) [Compound A178] gave a DC50 of 90.5 nM.
With `Cc1ncsc1-c1ccc(CNC(=O)[C@@H]2C[C@@H](O)CN2C(=O)[C@@H](NC(=O)COCCCCN2CCC(c3ccc(N4C(=S)N(c5ccc(C#N)c(C(F)(F)F)c5F)C(=O)C4(C)C)cn3)CC2)C(C)(C)C)cc1` [Compound A141], the DC50 was greater than 2000 nM.
For `CC1(C)C(=O)N(c2ccc(C#N)c(C(F)(F)F)c2F)C(=S)N1c1ccc(-c2ccc(OCCNC(=O)COc3cccc4c3C(=O)N(C3CCC(=O)NC3=O)C4=O)cc2)cc1` (stereo not drawn) [Compound A22] the value was 73.7 nM.
The figure for `Cc1ncsc1-c1ccc(CNC(=O)[C@@H]2C[C@@H](O)CN2C(=O)[C@@H](NC(=O)COCC(F)(F)CCOc2ccc(-c3ncc(N4C(=S)N(c5ccc(C#N)c(C(F)(F)F)c5F)C(=O)C4(C)C)cc3F)cc2F)C(C)(C)C)cc1` [Compound A162] is 186 nM; for `CC1(C)C(=O)N(c2ccc(C#N)c(C(F)(F)F)c2F)C(=S)N1c1ccc(-c2ccc(C(=O)NCCNC(=O)COc3cccc4c3C(=O)N(C3CCC(=O)NC3=O)C4=O)cc2)nc1` (stereo not drawn) [Compound A34] it is 835 nM; for `Cc1ncsc1-c1ccc(CNC(=O)[C@@H]2C[C@@H](O)CN2C(=O)[C@@H](NC(=O)COCC(F)(F)CCOc2ccc(-c3ccc(N4C(=S)N(c5ccc(C#N)c(C(F)(F)F)c5F)C(=O)C4(C)C)cn3)cc2)C(C)(C)C)cc1` [Compound A175] it is 123 nM.
For `CC(C)(C)[C@H](NC(=O)COCCCCOc1c(F)cc(-c2ncc(N3C(=S)N(c4ccc(C#N)c(C(F)(F)F)c4F)C(=O)C3(C)C)cc2C(F)(F)F)cc1F)C(=O)N1C[C@H](O)C[C@H]1C(=O)NCc1ccccc1` [Compound A114] the value was 79.3 nM; for `CC1(C)C(=O)N(c2ccc(C#N)c(C(F)(F)F)c2F)C(=S)N1c1ccc(-c2ccc(OCCNC(=O)COc3cccc4c3C(=O)N(C3CCC(=O)NC3=O)C4=O)cc2)nc1` (stereo not drawn) [Compound A23], 721 nM; for `CC(C)(C)[C@H](NC(=O)COCCCCOc1ccc(-c2ccc(N3C(=S)N(c4ccc(C#N)c(C(F)(F)F)c4F)C(=O)C3(C)C)cn2)cn1)C(=O)N1C[C@H](O)C[C@H]1C(=O)NCc1ccccc1` [Compound A128], 124 nM.
In the case of `Cc1ncsc1-c1ccc(CNC(=O)[C@@H]2C[C@@H](O)CN2C(=O)[C@@H](NC(=O)COCCCC(=O)N(Cc2ccccc2)c2ccc(-c3ccc(N4C(=S)N(c5ccc(C#N)c(C(F)(F)F)c5F)C(=O)C4(C)C)cn3)cc2)C(C)(C)C)cc1` [Compound A67], the DC50 was 248 nM.
`CC(C)(C)[C@H](NC(=O)COCCCCOc1ccc(-c2ncc(N3C(=S)N(c4ccc(C#N)c(C(F)(F)F)c4F)C(=O)C3(C)C)cc2F)cc1F)C(=O)N1C[C@H](O)C[C@H]1C(=O)NCc1ccccc1` [Compound A120] yielded a DC50 of 216 nM.
For `Cc1ncsc1-c1ccc(CNC(=O)[C@@H]2C[C@@H](O)CN2C(=O)[C@@H](OC(=O)COCCCCOc2ccc(-c3ncc(N4C(=S)N(c5ccc(C#N)c(C(F)(F)F)c5F)C(=O)C4(C)C)cc3F)cc2F)C(C)(C)C)cc1` [Compound A107] the value was 107 nM.

Source of the values: US12606552B2, “Bifunctional compound, preparation method therefor, and use thereof” (SUZHOU KINTOR PHARMACEUTICALS, INC., priority 2020, dated 2026).
